According to ChEMBL document CHEMBL1128779, “Synthesis of a fluorescent labeled thromboxane A2 receptor antagonist” (Bioorg Med Chem Lett, 1995):

Molecular target: T1, Thromboxane A2 receptor (Homo sapiens, UniProt P21731)
T1 sequence (P21731 whole entry): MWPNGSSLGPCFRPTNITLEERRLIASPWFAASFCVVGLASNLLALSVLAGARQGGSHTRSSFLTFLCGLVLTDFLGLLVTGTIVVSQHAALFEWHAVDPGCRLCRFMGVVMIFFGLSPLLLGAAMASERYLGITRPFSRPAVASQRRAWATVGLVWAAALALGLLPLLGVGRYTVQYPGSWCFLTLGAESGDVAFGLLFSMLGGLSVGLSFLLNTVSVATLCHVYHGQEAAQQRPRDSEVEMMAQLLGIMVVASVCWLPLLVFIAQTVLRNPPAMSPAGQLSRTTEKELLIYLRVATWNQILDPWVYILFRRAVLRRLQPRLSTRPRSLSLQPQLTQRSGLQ
Assay: Binding affinity of Thromboxane A2 (TXA2) receptor using [3H]-SQ 29,548 radioligand in washed human platelets

Row | Kd | SMILES
1 | 424 nM | CC1(C)C2CC[C@@H](Cc3cccc4ccc(=O)oc34)C1C2 (some centres not stated)
2 | 138 nM | CC1(C)C2CC[C@H](Cc3cccc4ccc(=O)oc34)C1C2 (some centres not stated)
